Key:
[1] = biological target: T1, 5-hydroxytryptamine receptor 2B (Homo sapiens, UniProt P41595); assay: (§1) Antagonist activity at 5HT2B (unknown origin) expressed in FRT cells co-expressing ANO1 and YFP assessed as inhibition of 5HT-induced increase in iodide influx preincubated with compound for 10 mins followed by 5-HT addition and measured after 8 sec by YFP fluorescence quenching analysis; type: cell-based
[2] = biological target: T1, 5-hydroxytryptamine receptor 2B; assay: as §1, with “influx at 1 uM” for “influx”, “analysis relative to control” for “analysis”; type: cell-based; conditions: time 608.0 sec
[3] = Drug concentration in male mouse brain at 5 mg/kg, ip measured after 0.5 hrs; type: ADME, organism-based; conditions: read-out: Ct
[4] = Ratio of drug concentration in male mouse brain to plasma at 5 mg/kg, ip measured after 0.5 hrs; type: ADME, organism-based; conditions: brain and plasma, read-out: BPR
[5] = Drug concentration in male mouse plasma at 5 mg/kg, ip measured after 0.5 hrs; type: ADME, organism-based

T1 sequence (P41595 whole entry): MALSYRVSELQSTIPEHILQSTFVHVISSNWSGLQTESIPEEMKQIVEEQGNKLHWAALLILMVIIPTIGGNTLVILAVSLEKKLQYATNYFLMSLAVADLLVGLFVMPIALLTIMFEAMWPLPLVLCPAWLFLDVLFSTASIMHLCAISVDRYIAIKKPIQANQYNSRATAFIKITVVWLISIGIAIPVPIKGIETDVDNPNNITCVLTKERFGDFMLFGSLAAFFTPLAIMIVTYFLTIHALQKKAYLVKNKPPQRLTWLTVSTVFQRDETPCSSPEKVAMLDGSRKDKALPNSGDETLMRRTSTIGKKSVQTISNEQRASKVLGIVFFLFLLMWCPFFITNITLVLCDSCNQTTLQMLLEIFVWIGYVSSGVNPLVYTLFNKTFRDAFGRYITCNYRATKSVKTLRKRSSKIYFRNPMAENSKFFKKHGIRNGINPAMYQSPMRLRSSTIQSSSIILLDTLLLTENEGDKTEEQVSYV

COc1ccc(S(=O)(=O)N[C@H]2CCN(C(=O)[C@@H](N)CCC(=O)O)C2)cc1C(=O)Nc1ccccc1Cl
IC50 [1]: 7.22 nM | inhibition ([2]; filed as antagonist): 94.5%

COc1ccc(S(=O)(=O)N[C@H]2CCOC2)cc1C(=O)Nc1ccccc1N1CCN(C(=O)OC(C)(C)C)CC1
inhibition [2]: 1.64%

COc1ccc(S(=O)(=O)N[C@H]2CCOC2)cc1C(=O)Nc1ccccc1Cl
concentration at 0.5 h [3]: 51.7 ng/g | Kp at 0.5 h [4]: 0.53 | IC50 [1]: 1.8 nM | concentration at 0.5 h [5]: 99.2 ng/mL | inhibition ([2]; filed as antagonist): 98.8%

COc1ccc(S(=O)(=O)NC2CCNCC2)cc1C(=O)Nc1ccccc1Cl
inhibition ([2]; filed as antagonist): 96.3%

COc1ccc(S(=O)(=O)N[C@H]2CCN(C(=O)[C@@H](N)CC(=O)O)C2)cc1C(=O)Nc1ccccc1Cl
IC50 [1]: 80.7 nM | inhibition ([2]; filed as antagonist): 94.3%

COc1ccc(S(=O)(=O)N[C@H]2CCOC2)cc1C(=O)Nc1ccccc1N
inhibition [2]: 32.8%

COc1ccc(S(=O)(=O)NC2CCN(C(=O)OC(C)(C)C)CC2)cc1C(=O)Nc1ccccc1Cl
inhibition ([2]; filed as antagonist): 47.1%

COc1ccc(S(=O)(=O)N[C@H]2CCN(C(=O)C[C@H](N)C(=O)O)C2)cc1C(=O)Nc1ccccc1Cl
IC50 [1]: 10 nM | inhibition ([2]; filed as antagonist): 103%

COc1ccc(S(=O)(=O)N[C@@H]2CCNC2)cc1C(=O)Nc1ccccc1Cl
inhibition ([2]; filed as antagonist): 97.8%
